# Values joined by “and” are separate entries in the source; they are usually repeats but may differ in a detail not shown here. Equal values may be shown once.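 Interpolation was linear, between the two tested concentrations surrounding the appropriate level; five concentrations were tested over 48 hours in 96-well plates. Here, GI50 denotes the concentration required for 50% inhibition of growth. TGI marks complete inhibition of growth.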
# What was measured:
# Test in all cases: NCI anticancer screen, dose series, 48 h
# [1] = test system: SK-MEL-28 melanoma
# [2] = test system: TK-10 renal
# [3] = test system: UACC-62 melanoma
# [4] = test system: A549 NSCLC
# [5] = test system: KM20L2 colon
# [6] = test system: U251 CNS
# [7] = test system: SK-MEL-2 melanoma
# [8] = test system: DMS 273 small cell lung
# [9] = test system: HT29 colon
# [10] = test system: MCF7 breast
Structure (SMILES),TGI [1],TGI [2] [µM],TGI [3],TGI [4] [µM],TGI [5] [µM],TGI [6],TGI [7],TGI [8] [µM],TGI [9],TGI [10],GI50 [1],GI50 [2] [µM],GI50 [3] [µM],GI50 [6] [µM],GI50 [9] [µM],GI50 [7] [µM],GI50 [10] [µM],GI50 [4] [µM],GI50 [5] [µM],GI50 [8] [µM]
O=C1c2ccccc2C(=O)N1C/C=C/CO,> 100 µM,> 100,> 100 µM,> 100,> 100,> 100 µM,> 100 µM,> 100,–,–,–,–,–,–,–,–,–,–,–,–
O=C(COC(=O)c1cccc2c(=O)c3ccccc3[nH]c12)Nc1ccccc1,> 100 µM,> 100,68 µM,> 100,> 100,> 100 µM,–,> 100,> 100 µM,–,–,–,–,–,–,–,–,–,–,–
O=C(NC1C2CC3CC(C2)CC1C3)c1cc(/C=C/c2ccccc2)[nH]c(=S)n1 (stereo not given),> 100 µM,> 100,> 100 µM,> 100,> 100,> 100 µM,> 100 µM,> 100,–,–,–,–,–,–,–,–,–,–,–,–
N#CCC(=O)N/N=C(\C(=O)Nc1ccc(Cl)c(Cl)c1)C1CN(c2ccccc2)N=C1N (stereo not given),> 100 µM,> 100,> 100 µM,> 100,> 100,> 100 µM,> 100 µM,> 100,> 100 µM,–,–,–,–,–,–,–,–,–,–,–
CSCCOC(=O)C(=[N+]=[N-])c1ccc([N+](=O)[O-])cc1,> 100 µM,> 100,–,> 100,> 100,> 100 µM,> 100 µM,> 100,> 100 µM,–,–,–,–,–,–,–,–,–,–,–
Clc1cc2n[se]nc2cc1Cl,> 100 µM,> 100,> 100 µM,> 100,> 100,> 100 µM,> 100 µM,> 100,> 100 µM,–,–,–,–,–,–,–,–,–,–,–
COc1cc2c(cc1OC)C(=O)Cc1ccc(OC)c(OC)c1CN(C)CC2,> 100 µM,> 100,> 100 µM,> 100,> 100,> 100 µM,> 100 µM,> 100,> 100 µM,–,–,–,–,–,–,–,–,–,–,–
c1ccc2c(c1)[nH]c1c2nc2ncccn21,> 100 µM,> 100,> 100 µM,> 100,> 100,> 100 µM,> 100 µM,> 100,> 100 µM,–,–,–,–,–,–,–,–,–,–,–
COC(=O)c1ccc(Cl)cc1NC(=O)C1CCCCC1,> 100 µM,> 100,–,> 100,> 100,> 100 µM,> 100 µM,> 100,> 100 µM,–,–,–,–,–,–,–,–,–,–,–
O=C1CC(O)(c2ccccc2)C(c2ccccc2)=C1c1ccccc1 (stereo not given),> 100 µM,> 100,> 100 µM,> 100,> 100,–,> 100 µM,> 100,> 100 µM,–,–,–,–,–,–,–,–,–,–,–
COc1ccc2nc3ccccc3c(NCCCN(C)CCCl)c2c1,2.01 µM,4.08,2.05 µM,2.42,2.5,1.71 µM,1.81 µM,1.36,2.66 µM,1.46 µM,–,–,–,–,–,–,–,–,–,–
CC(C)(C)OC(=O)NC(CO)c1cccc(OCc2ccccc2)c1 (stereo not given),> 100 µM,> 100,> 100 µM,> 100,> 100,> 100 µM,> 100 µM,> 100,> 100 µM,–,–,–,–,–,–,–,–,–,–,–
COc1ccc2oc(C(=O)O)c3c2c1CCC3,> 100 µM,> 100,> 100 µM,> 100,> 100,> 100 µM,–,> 100,> 100 µM,–,–,–,–,–,–,–,–,–,–,–
N#C/C(=C/Sc1ccccc1)C(=O)O,> 100 µM,> 100,> 100 µM,> 100,91.2,45.9 µM,72.3 µM,72.6,84.1 µM,–,–,–,–,–,–,–,–,–,–,–
COc1cc(O)c2c(c1)C(=O)c1cc3c(c(O)c1C2=O)C(OC1OC(C)C(O)C(O)C1OC)C(OC)C(C)(O)C3=O (stereo not given),5.97 µM and 5.4 µM,61.4,3.16 µM and 4.1 µM,12,6,13.2 µM and 11.8 µM,6.52 µM and 9.1 µM,3.85,11.8 µM and 8.61 µM,6.76 µM and 6.4 µM,2.24 µM and 1.74 µM,4.29,1.68,2.56,2.44,2.49,–,–,–,–
COc1ccc(OC(C(=O)O)c2ccccc2)c2c1CCCC2=O (stereo not given),> 100 µM,> 100,> 100 µM,> 100,> 100,> 100 µM,> 100 µM,> 100,> 100 µM,–,–,–,–,–,–,–,–,–,–,–
Cc1nn(-c2nc3ccccc3s2)c2c1C(=O)c1ccccc1-2,> 100 µM,> 100,> 100 µM,> 100,> 100,> 100 µM,> 100 µM,> 100,> 100 µM,–,–,–,–,–,–,–,–,–,–,–

Structure (SMILES),TGI [1],TGI [2] [µM],TGI [3],TGI [4] [µM],TGI [5] [µM],TGI [6],TGI [7],TGI [8] [µM],TGI [9],TGI [10],GI50 [1],GI50 [2] [µM],GI50 [3] [µM],GI50 [6] [µM],GI50 [9] [µM],GI50 [7] [µM],GI50 [10] [µM],GI50 [4] [µM],GI50 [5] [µM],GI50 [8] [µM]
Fc1cccc2c1cc1ccc3cccc4ccc2c1c34,> 100 µM,> 100,> 100 µM,> 100,> 100,> 100 µM,> 100 µM,> 100,> 100 µM,–,–,–,–,–,–,–,–,–,–,–
NCCN1C(=O)C2C3c4ccccc4C(c4ccccc43)C2C1=O (stereo not given),> 100 µM,> 100,> 100 µM,> 100,> 100,> 100 µM,> 100 µM,> 100,> 100 µM,–,–,–,–,–,–,–,–,–,–,–
CNC(=O)c1cccc2c(Nc3ccc(NS(C)(=O)=O)cc3OC)c3cccc(C)c3nc12,10.9 µM,8.2,1.38 µM,1.61,3.72,0.719 µM,6.37 µM,1.69,3.69 µM,–,–,–,–,–,–,–,–,–,–,–
Cc1ccc(-c2nc(N3CCCNCC3)c3oc(-c4ccccc4)nc3n2)cc1,3.39 µM,3.2,3.3 µM,3.12,–,3.17 µM,3.77 µM,–,3.15 µM,3.44 µM,1.85 µM,1.8,1.71,1.78,1.69,2.03,1.59,1.71,–,–
CCOc1ccccc1NC(=O)CCc1n[nH]c(=S)o1,> 100 µM,> 100,> 100 µM,> 100,> 100,> 100 µM,> 100 µM,> 100,> 100 µM,–,–,–,–,–,–,–,–,–,–,–
CCOC(=O)/C(C#N)=C1/C(O)=C(C(=O)OC)C(C(=O)OC)=C1C(=O)OC,> 100 µM,> 100,> 100 µM,> 100,> 100,> 100 µM,> 100 µM,> 100,> 100 µM,–,–,–,–,–,–,–,–,–,–,–
C/C(=C(\c1ccc(OCCN2CCCCCC2)cc1)c1ccc(OC(=O)Cc2ccccc2)cc1)c1ccc(Cl)cc1,5.03 µM,16.6,5.2 µM,5.41,–,5.03 µM,8.72 µM,–,4.01 µM,3.83 µM,2.52 µM,4.43,2.73,2.59,1.05,3.98,0.382,2.7,–,–
O=S(O)CCCSSc1ccccc1,> 100 µM,> 100,> 100 µM,> 100,> 100,> 100 µM,> 100 µM,> 100,> 100 µM,–,–,–,–,–,–,–,–,–,–,–
COc1ccc(OC)c(-c2cc(=O)c3c(OC)c(OC)c(OC)c(OC)c3o2)c1,> 100 µM,> 100,64.3 µM,> 100,–,> 100 µM,49.3 µM,–,> 100 µM,55.5 µM,–,–,–,–,–,–,–,–,–,–
CCN(CC)CCCC(C)N=c1cc(Nc2cc(=NC(C)CCCN(CC)CC)c3cc(OC)ccc3o2)oc2ccc(OC)cc12 (stereo not given),1.52 µM,3.22,2.39 µM,1.87,–,3.4 µM,2.71 µM,–,1.97 µM,3.68 µM,0.838 µM,1.3,1.04,1.15,0.588,1.35,1.08,0.849,–,–
COC(=O)/C=C/c1cn(C(C)=O)c2ccc(Br)cc12,> 100 µM,71.4,> 100 µM,> 100,–,> 100 µM,> 100 µM,–,> 100 µM,> 100 µM,49 µM,24.7,30.7,28.2,27.5,29.5,15.7,33.8,–,–
CC(=O)[C@@]1(O)[C@H](C)C[C@H]2[C@@H]3C=C(C)C4=Cc5c(cnn5-c5ccccc5)C[C@]4(C)[C@H]3[C@@H](O)C[C@@]21C,13 µM,6.08,5.76 µM,13.9,–,6.23 µM,5.88 µM,–,4.38 µM,11 µM,3.22 µM,1.97,2.24,1.51,0.946,2.45,1.97,1.82,–,–
Cc1cc(Oc2ccc3nc(COc4ccc(CC5SC(=O)NC5=O)cc4)n(C)c3c2)cc(C)c1N (stereo not given),> 100 µM,> 91.6,72.4 µM,> 87.7,–,> 94 µM,> 69.7 µM,–,> 100 µM,98.9 µM,49.7 µM,> 52.6,22.5,32.2,45.2,> 49.4,27.6,29.5,–,–
CCC[CH2][Sn]1([CH2]CCC)[O]C(=O)c2ccc(C)cc2[O]1,1.45 µM,0.766,1.57 µM,2.97,2.46,1.16 µM,–,2.62,2.97 µM,–,0.412 µM,0.297,0.437,0.316,1.34,–,–,1.57,1.21,0.55
Cc1cn2c(/C=N/N=C(N)N)c(-c3cccnc3)nc2s1,26.3 µM,21.3,23.6 µM,56.1,–,23.7 µM,45.5 µM,–,16.1 µM,> 100 µM,12.4 µM,6.85,11,10.2,4.18,18.7,20.8,16.3,–,–
N#CS.N=C=S.N=C=S.[Cu+2].[NH2-].[NH2-].[NH2-].[NH2-].c1ccc2ncccc2c1,> 100 µM,> 100,37 µM,51.5,–,38.1 µM,> 100 µM,–,> 100 µM,35.9 µM,> 100 µM,90,19.4,20.1,60.7,> 100,18.2,20.4,–,–

# Source: PubChem BioAssay (NCI)
